Assay results as given in US9765116B2, “Inhibitors of the Eph-A receptor and uses thereof” (Carmel Haifa University Economic Corporation Ltd., priority 2013, dated 2017).

Experiments:
EphA4 [1] = target: T1, EphA4 (Rattus norvegicus, UniProt D3ZZK3); assay: Pull down experiment with pep-ephrinA4 (FIG. 4B), EphA4; type: binding; settings: vs pep-control and agarose beads alone
rats = settings: subcutaneous, single dose 20 μl of 10 μg/μl, 1 hour after fear conditioning, relative to saline
Experimental: A fear conditioning in vivo model was performed as in example 3A, however, no cannula was introduced into the rats. […] A fear memory test was performed 24 hours after the injection.

EphB2 receptor = settings: control protein
[2] = target: elongation factor 2 protein (eEF2) (Rattus norvegicus, UniProt P05197); assay: Pull down experiment with pep-ephrinA4, eEF2 control protein; type: binding
EphA4 [3] = target: T1, EphA4; assay: ephrinA4-induced EphA4 tyrosine phosphorylation in brain slices containing the amygdala (immunoprecipitation, Western blot); type: cell-based; design: brain slices that contain the amygdala were divide to 3 groups; from tissue; host or cells: brain slices containing the amygdala; settings: brain slices in Ringer's solution stimulated with ephrinA4-Fc for 20 minutes, compared to Ringer's solution control
Experimental: Further, brain slices that contain the amygdala were divide to 3 groups: 1) placed in Ringer's solution, 2) placed in Ringer's solution and stimulated with ephrinA4-Fc for 20 minutes or 3) placed in Ringer's solution with pep-ephrinA4 for 20 minutes followed by stimulation with ephrinA4-Fc for 20 minutes (n=3 each). Protein extracts from the slices were immunoprecipitated with anti-EphA4 antibody and subjected to Western blot with anti-EphA4 or anti-phosphotyrosine antibodies.

T1 sequence (D3ZZK3 20-986): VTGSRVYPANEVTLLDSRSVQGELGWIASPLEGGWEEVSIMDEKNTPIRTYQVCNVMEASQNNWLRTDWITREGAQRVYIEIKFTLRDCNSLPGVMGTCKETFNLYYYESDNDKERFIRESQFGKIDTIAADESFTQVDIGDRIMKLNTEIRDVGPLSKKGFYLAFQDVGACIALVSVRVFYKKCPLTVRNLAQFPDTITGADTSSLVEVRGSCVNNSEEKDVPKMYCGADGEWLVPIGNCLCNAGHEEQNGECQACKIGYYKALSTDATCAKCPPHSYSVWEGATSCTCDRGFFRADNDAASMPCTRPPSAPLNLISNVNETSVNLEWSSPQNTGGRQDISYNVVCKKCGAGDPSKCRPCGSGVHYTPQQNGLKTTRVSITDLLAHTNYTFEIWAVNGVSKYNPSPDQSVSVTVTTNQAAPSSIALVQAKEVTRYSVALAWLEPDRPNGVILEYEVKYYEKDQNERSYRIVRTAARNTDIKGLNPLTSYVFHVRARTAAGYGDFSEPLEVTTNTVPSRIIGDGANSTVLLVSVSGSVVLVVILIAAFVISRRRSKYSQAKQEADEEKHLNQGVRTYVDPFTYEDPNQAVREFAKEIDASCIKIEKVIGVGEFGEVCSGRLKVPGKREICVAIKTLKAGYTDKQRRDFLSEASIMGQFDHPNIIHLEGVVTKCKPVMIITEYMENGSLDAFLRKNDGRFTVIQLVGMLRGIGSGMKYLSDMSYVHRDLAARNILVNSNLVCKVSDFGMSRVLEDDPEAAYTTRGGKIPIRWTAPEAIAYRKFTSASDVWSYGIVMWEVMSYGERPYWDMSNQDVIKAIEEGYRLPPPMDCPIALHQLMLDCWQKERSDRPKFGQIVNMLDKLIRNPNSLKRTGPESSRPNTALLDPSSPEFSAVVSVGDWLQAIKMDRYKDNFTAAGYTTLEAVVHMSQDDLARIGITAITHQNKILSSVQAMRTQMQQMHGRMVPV
Experimental for male Sprague Dawley rats: Subsequently, the neutral stimulus is administered to the groups of animals, and the animals' responses are analyzed. A test group of animals is administered a test agent which may inhibit the long term association in the memory of the animals between the neutral stimulus and the aversive event. If at a point in time about 24 hours after training the animals in the test group respond to the stimulus to a lesser degree than the animals in the control group without having other significant side effects, the test agent is determined to inhibit formation of long term memories. […] Short term memory formation was also tested in the current model by testing responses to stimulus 60 minutes after training.
In the current model, neutral stimulus provided to the animals was a tone and the aversive event was a mild footshock provided to the animals.
Long-term memory formation is believed to involve modifications in neural transmission and/or synaptic connections in neural networks in the area of the brain known as the lateral amygdala (LA.) In the current model, Peptide 1 was used a test agent and was administered directly to the LA.
In the model, male Sprague Dawley rats (each weighing about 250-300 grams), were used in the study (animals were obtained from Harlan Laboratories). In order to administer test agents to the LA of the rats, surgery was performed in which cannulas were inserted. To perform the surgery, rats were anesthetized with Xylazine 2% (15 milligrams per kilogram [mg/kg]) and Ketamine (120 mg/kg). Calmagine (Vetoquinol) (0.01 milliliters) was injected for analgesia before surgery. Guide stainless-steel cannulas (23 gauge) were implanted bilaterally 1.5 millimeters (mm) above the LA. The animals recovered for 5-7 days before behavior training.
Following surgery, rats were housed separately at 22±2° C. in a 12 hour light/dark cycle, with free access to food and water.
Rats were habituated to the training chamber and to the injection machine for 2 days for 30 min each day. On the next day the animals were subjected to the fear conditioning protocol. […]

Substance | freezing 24 hours after training (long term fear memory) (male Sprague Dawley rats; 0.5 μl of 10 μg/μl per amygdala into LA 30 minutes before training, vs saline, peptide 2 and misplaced peptide 1) | rate of fear reduction over the trials (male Sprague Dawley rats; LA microinjection, compared to controls) | freezing 1 hour after training (formation of short term memory) (male Sprague Dawley rats; LA microinjection, no main effect for groups (p>0.4)) | interaction with EphA4 (pull down) (EphA4 [1]) | freezing in fear memory test 24 hours after the injection (rats) | interaction with EphB2 receptor (pull down) (EphB2 receptor) | interaction with elongation factor 2 protein (eEF2) (pull down) [2] | EphA4 phosphorylation after stimulation (EphA4 [3])
Ac-RRQRYTPFPLGFE-Lys(Biotin)-NH2-0H [peptide 1] | froze significantly less | did not alter | does not inhibit | interacts | significantly reducing freezing | did not interact | did not interact | 
Ac-RRWSGYEACTAEG-Lys(Biotin)-NH2-0H [peptide 2, reference compound] |  |  |  | not |  |  |  | 
ephrinA4: ephrinA4-Fc used to stimulate brain slices for 20 minutes (RRQRYTPFPLGFEK) |  |  |  |  |  |  |  | significant increase
